This assay deals with recombinant EZH2-641F complex (EZH2 Y641F/EED/SUZ12/RbAp48/AEBP2) (Homo sapiens (Human), UniProt Q15910, Y641F). The experiment in a line: EZH2 Histone Methyl Transferase Assay (scintillation proximity assay). The format is biochemical. The conditions noted are these: 350 nM histone peptide substrate, 500 nM 3H-SAM, 3 hours room temperature. As for the experimental part:
EZH2 Histone Methyl Transferase Assay
The effectiveness of compounds of the present invention as inhibitors of histone methyl transferases can be readily tested by assays known to those skilled in the art. For example, in vitro histone methyl transferase assays may be conducted with a relevant purified histone methyl transferase and an appropriate synthetic substrate to determine the inhibitory activity of the compounds. Assays for inhibition of EZH2 by the instant compounds were performed in 384-well plates with reaction mixtures containing 350 nM of histone peptide substrate (ATKAAR-K(Me2)-SAPATGGVKKPHRYRPG-GK(Biotin), 500 nM S-[methyl-^3H]adenosyl-L-methionine (55-85 Ci/mmol), 50 mM Tris-HCl (pH 9.0), 50 mM NaCl, 1 mM dithiothreitol, Tween-20 at 0.01% and fatty-acid free bovine serum albumin at 0.01%, and recombinant EZH2-641F complex (EZH2 Y641F/EED/SUZ12/RbAp48/AEBP2) at 5 nM (>98% purity, BPS Bioscience) or 15 nM (50% purity, in-house). Reaction mixtures were incubated at room temperature for 3 hours, and the reactions were terminated by 0.005% poly-L-lysine solution in 20 mM Tris-HCl (pH 7.5) and 150 mM NaCl. Reaction products were captured by binding to strepavidin-conjugated imaging beads. Incorporation of radioactive methyl group into the histone peptide substrate was determined in Leadseeker (GE Healthcare) by means of scintillation proximity assay. Dose response curves were generated to determine the concentration required to inhibit 50% of methyl transferase activity (EC50). Compounds were dissolved at 10 mM in dimethylsulfoxide (DMSO) and evaluated at eleven concentrations. EC50 values were derived by non-linear regression analysis.

The text below walks through data of US9822103B2, “Inhibitors of lysine methyl transferase” (priority 2013, dated 2017).

What is called IC50 is the midpoint of a concentration-inhibition curve.

Chain of recombinant EZH2-641F complex (EZH2 Y641F/EED/SUZ12/RbAp48/AEBP2) (Q15910 whole entry Y641F): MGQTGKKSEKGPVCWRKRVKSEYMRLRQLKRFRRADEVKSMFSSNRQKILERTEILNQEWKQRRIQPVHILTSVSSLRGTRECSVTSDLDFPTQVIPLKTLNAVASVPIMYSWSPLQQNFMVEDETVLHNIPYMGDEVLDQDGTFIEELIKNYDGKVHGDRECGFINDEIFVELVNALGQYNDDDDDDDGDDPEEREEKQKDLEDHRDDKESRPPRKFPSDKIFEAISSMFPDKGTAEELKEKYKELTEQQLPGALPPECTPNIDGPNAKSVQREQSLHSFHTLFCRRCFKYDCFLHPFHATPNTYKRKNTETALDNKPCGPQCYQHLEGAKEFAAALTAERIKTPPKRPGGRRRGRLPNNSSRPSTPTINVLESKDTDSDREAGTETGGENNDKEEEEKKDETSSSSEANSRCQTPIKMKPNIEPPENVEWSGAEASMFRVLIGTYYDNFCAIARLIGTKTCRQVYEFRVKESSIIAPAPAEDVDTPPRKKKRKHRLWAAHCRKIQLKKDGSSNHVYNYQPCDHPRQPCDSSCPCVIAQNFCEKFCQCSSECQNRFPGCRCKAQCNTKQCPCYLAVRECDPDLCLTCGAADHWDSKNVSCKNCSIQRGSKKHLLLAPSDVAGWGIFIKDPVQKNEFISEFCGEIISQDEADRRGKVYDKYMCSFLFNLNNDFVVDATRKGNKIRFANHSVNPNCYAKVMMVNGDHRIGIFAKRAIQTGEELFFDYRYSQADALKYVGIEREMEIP
Chain of recombinant EZH2-641F complex (EZH2 Y641F/EED/SUZ12/RbAp48/AEBP2) (O75530 whole entry partner): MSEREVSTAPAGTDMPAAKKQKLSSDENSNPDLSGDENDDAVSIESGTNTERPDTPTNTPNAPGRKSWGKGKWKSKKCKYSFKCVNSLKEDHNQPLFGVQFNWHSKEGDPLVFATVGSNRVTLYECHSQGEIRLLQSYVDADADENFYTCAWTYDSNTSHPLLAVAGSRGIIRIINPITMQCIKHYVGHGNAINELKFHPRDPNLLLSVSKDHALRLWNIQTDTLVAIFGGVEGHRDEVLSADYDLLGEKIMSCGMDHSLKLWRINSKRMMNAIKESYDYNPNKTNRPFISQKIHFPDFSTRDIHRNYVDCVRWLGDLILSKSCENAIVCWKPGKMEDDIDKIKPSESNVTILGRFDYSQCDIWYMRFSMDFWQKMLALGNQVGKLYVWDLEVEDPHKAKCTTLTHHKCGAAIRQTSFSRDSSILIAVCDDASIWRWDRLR
Chain of recombinant EZH2-641F complex (EZH2 Y641F/EED/SUZ12/RbAp48/AEBP2) (Q15022 whole entry partner): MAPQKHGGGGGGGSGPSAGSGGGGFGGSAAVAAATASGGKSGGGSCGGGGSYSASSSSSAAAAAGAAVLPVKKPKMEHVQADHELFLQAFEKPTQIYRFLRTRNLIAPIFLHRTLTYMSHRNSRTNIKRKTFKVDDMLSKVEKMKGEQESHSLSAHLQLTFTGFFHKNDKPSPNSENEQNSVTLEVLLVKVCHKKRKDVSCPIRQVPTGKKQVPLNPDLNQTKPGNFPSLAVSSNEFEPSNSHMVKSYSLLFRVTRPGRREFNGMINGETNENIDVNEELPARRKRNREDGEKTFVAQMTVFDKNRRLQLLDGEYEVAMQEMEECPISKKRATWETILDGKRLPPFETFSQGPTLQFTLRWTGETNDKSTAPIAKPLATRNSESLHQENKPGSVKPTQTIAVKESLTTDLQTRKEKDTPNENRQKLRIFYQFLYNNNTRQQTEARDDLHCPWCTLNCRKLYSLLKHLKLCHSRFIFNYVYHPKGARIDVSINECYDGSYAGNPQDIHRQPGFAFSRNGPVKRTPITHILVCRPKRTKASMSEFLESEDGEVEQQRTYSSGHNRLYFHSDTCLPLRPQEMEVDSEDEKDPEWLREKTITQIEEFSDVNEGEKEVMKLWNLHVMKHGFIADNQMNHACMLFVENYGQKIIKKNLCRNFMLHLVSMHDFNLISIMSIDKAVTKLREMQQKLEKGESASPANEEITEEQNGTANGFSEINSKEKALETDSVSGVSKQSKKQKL
Chain of recombinant EZH2-641F complex (EZH2 Y641F/EED/SUZ12/RbAp48/AEBP2) (Q09028 whole entry partner): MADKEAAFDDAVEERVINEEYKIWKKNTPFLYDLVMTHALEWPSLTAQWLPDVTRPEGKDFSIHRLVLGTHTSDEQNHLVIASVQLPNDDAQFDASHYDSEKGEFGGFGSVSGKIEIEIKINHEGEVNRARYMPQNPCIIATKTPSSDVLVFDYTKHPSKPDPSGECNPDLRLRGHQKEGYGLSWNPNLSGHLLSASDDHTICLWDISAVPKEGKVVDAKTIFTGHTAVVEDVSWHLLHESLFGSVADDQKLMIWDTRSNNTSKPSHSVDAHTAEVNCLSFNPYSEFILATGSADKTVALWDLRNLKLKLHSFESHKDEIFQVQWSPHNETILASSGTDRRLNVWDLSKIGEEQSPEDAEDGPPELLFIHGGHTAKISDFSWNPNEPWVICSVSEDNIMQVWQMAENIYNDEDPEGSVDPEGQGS
Chain of recombinant EZH2-641F complex (EZH2 Y641F/EED/SUZ12/RbAp48/AEBP2) (Q6ZN18 whole entry partner): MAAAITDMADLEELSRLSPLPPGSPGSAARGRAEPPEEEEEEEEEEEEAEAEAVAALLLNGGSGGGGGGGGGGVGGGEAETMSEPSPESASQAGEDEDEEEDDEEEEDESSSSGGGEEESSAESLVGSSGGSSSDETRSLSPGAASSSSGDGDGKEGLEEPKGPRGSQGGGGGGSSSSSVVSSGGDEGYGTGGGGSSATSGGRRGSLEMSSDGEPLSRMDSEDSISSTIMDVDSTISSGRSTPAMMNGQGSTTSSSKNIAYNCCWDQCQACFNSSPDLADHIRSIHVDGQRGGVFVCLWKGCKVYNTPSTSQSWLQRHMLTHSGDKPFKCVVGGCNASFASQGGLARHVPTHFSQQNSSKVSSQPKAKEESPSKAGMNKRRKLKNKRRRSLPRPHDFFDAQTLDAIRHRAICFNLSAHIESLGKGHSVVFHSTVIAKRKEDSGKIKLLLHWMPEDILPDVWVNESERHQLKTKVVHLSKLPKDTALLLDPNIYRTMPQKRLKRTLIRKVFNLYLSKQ

Take `Cc1cc(C)c(CNC(=O)c2cc3c(c(-c4cnc(N5CCNCC5)nc4)c2)OC(C)(C)C3)c(=O)[nH]1` [Example 20, N-((4,6-Dimethyl-2-oxo-1,2-dihydropyridin-3-yl)methyl)-2,2-dimethyl-7-(2-(piperazin-1-yl)pyrimidin-5-yl)-2,3-dihydrobenzofuran-5-carboxamide]: the IC50 was less than 500 nM.

As for `Cc1cc(C)c(CNC(=O)c2cc(Cc3ccccc3)c3c(c2)CC(C)(C)O3)c(=O)[nH]1` [Example 21, 7-Benzyl-N-((4,6-dimethyl-2-oxo-1,2-dihydropyridin-3-yl)methyl)-2,2-dimethyl-2,3-dihydrobenzofuran-5-carboxamide], the IC50 was more than 1000 nM.

With `Cc1cc(C)c(CNC(=O)c2cc(C#N)c3c(c2)CC(C)(C)O3)c(=O)[nH]1` [Example 22, 7-Cyano-N-((4,6-dimethyl-2-oxo-1,2-dihydropyridin-3-yl)methyl)-2,2-dimethyl-2,3-dihydrobenzofuran-5-carboxamide], the half-inhibitory concentration (IC50) is more than 1000 nM.

With `CCCc1cc(C)[nH]c(=O)c1CNC(=O)c1cc(Cl)c2c(c1)CC(C)(C)O2` [Example 23, 7-Chloro-2,2-dimethyl-N-((6-methyl-2-oxo-4-propyl-1,2-dihydropyridin-3-yl)methyl)-2,3-dihydrobenzofuran-5-carboxamide], the 50% inhibitory concentration (IC50) was more than 1000 nM.

Turning to `CCCc1cc(C)[nH]c(=O)c1CNC(=O)c1cc(Br)c2c(c1)CC(C)(C)O2` [Example 24, 7-Bromo-2,2-dimethyl-N-((6-methyl-2-oxo-4-propyl-1,2-dihydropyridin-3-yl)methyl)-2,3-dihydrobenzofuran-5-carboxamide], the IC50 is more than 1000 nM.

For the molecule `COc1ccc(-c2cc(C(=O)NCc3c(C)cc(C)[nH]c3=O)c(C)c3c2OC(C)(C)C3)cn1` [Example 25, N-((4,6-Dimethyl-2-oxo-1,2-dihydropyridin-3-yl)methyl)-7-(6-methoxypyridin-3-yl)-2,2,4-trimethyl-2,3-dihydrobenzofuran-5-carboxamide], the IC50 fell in the range of 500 to 1000 nM.

With `Cc1cc(C)c(CNC(=O)c2cc(-c3ccc(N4CCNCC4)nc3)c3c(c2C)CC(C)(C)O3)c(=O)[nH]1` [Example 26, N-((4,6-Dimethyl-2-oxo-1,2-dihydropyridin-3-yl)methyl)-2,2,4-trimethyl-7-(6-(piperazin-1-yl)pyridin-3-yl)-2,3-dihydrobenzofuran-5-carboxamide], the IC50 is less than 500 nM.

As to `Cc1cc(C)c(CNC(=O)c2cc(-c3ccc(N4CCOCC4)nc3)c3c(c2)C(C)CO3)c(=O)[nH]1` (stereo not drawn) [Example 27, N-((4,6-Dimethyl-2-oxo-1,2-dihydropyridin-3-yl)methyl)-3-methyl-7-(6-morpholinopyridin-3-yl)-2,3-dihydrobenzofuran-5-carboxamide], the IC50 is more than 1000 nM.

Turning to `Cc1cc(C)c(CNC(=O)c2cc(-c3ccc(CN4CCOCC4)cc3)c3c(c2)C(C)CO3)c(=O)[nH]1` (stereo not drawn) [Example 28, N-((4,6-Dimethyl-2-oxo-1,2-dihydropyridin-3-yl)methyl)-3-methyl-7-(4-(morpholinomethyl)phenyl)-2,3-dihydrobenzofuran-5-carboxamide], the half-inhibitory concentration (IC50) is more than 1000 nM.

Turning to `Cc1cc(C)c(CNC(=O)c2cc(-c3ccc(N4CCNCC4)nc3)c3c(c2)C(C)CO3)c(=O)[nH]1` (stereo not drawn) [Example 29, N-((4,6-Dimethyl-2-oxo-1,2-dihydropyridin-3-yl)methyl)-3-methyl-7-(6-(piperazin-1-yl)pyridin-3-yl)-2,3-dihydrobenzofuran-5-carboxamide], the concentration for half-maximal inhibition (IC50) was more than 1000 nM.

In the case of `COc1ccc(-c2cc(C(=O)NCc3c(C)cc(C)[nH]c3=O)cc3c2OCC3C)cn1` (stereo not drawn) [Example 30, N-((4,6-Dimethyl-2-oxo-1,2-dihydropyridin-3-yl)methyl)-7-(6-methoxypyridin-3-yl)-3-methyl-2,3-dihydrobenzofuran-5-carboxamide], the half-maximal inhibitory concentration (IC50) was more than 1000 nM.

As to `Cc1cc(C)c(CNC(=O)c2cc(Br)c3c(c2)CC(C)O3)c(=O)[nH]1` (stereo not drawn) [Example 31, 7-Bromo-N-((4,6-dimethyl-2-oxo-1,2-dihydropyridin-3-yl)methyl)-2-methyl-2,3-dihydrobenzofuran-5-carboxamide], the IC50 is more than 1000 nM.

With `COc1ccc(-c2cc(C(=O)NCc3c(C)cc(C)[nH]c3=O)cc3c2OC(C)C3)cn1` (stereo not drawn) [Example 32, N-((4,6-Dimethyl-2-oxo-1,2-dihydropyridin-3-yl)methyl)-7-(6-methoxypyridin-3-yl)-2-methyl-2,3-dihydrobenzofuran-5-carboxamide], the IC50 is more than 1000 nM.

For `Cc1cc(C)c(CNC(=O)c2cc3c(c(-c4ccc(N5CCOCC5)nc4)c2)OC(C)C3)c(=O)[nH]1` (stereo not drawn) [Example 33, N-((4,6-Dimethyl-2-oxo-1,2-dihydropyridin-3-yl)methyl)-2-methyl-7-(6-morpholinopyridin-3-yl)-2,3-dihydrobenzofuran-5-carboxamide], the concentration for half-maximal inhibition (IC50) is more than 1000 nM.

For the molecule `Cc1cc(C)c(CNC(=O)c2cc3c(c(-c4ccc(N5CCNCC5)nc4)c2)OC(C)C3)c(=O)[nH]1` (stereo not drawn) [Example 34, N-((4,6-Dimethyl-2-oxo-1,2-dihydropyridin-3-yl)methyl)-2-methyl-7-(6-(piperazin-1-yl)pyridin-3-yl)-2,3-dihydrobenzofuran-5-carboxamide], the IC50 was more than 1000 nM.

Consider `Cc1cc(C)c(CNC(=O)c2cc3c(c(-c4ccc(CN5CCOCC5)cc4)c2)OC(C)C3)c(=O)[nH]1` (stereo not drawn) [Example 35, N-((4,6-Dimethyl-2-oxo-1,2-dihydropyridin-3-yl)methyl)-2-methyl-7-(4-(morpholinomethyl)phenyl)-2,3-dihydrobenzofuran-5-carboxamide], for which the IC50 was more than 1000 nM.

As for `COc1ccc(-c2cc(C(=O)NCc3c(C)cc(C)[nH]c3=O)cc3c2OCC3)cn1` [Example 36, N-((4,6-Dimethyl-2-oxo-1,2-dihydropyridin-3-yl)methyl)-7-(6-methoxypyridin-3-yl)-2,3-dihydrobenzofuran-5-carboxamide], the half-inhibitory concentration (IC50) is more than 1000 nM.

As for `Cc1cc(C)c(CNC(=O)c2cc3c(c(-c4ccc(N5CCOCC5)nc4)c2)OCC3)c(=O)[nH]1` [Example 37, N-((4,6-Dimethyl-2-oxo-1,2-dihydropyridin-3-yl)methyl)-7-(6-morpholinopyridin-3-yl)-2,3-dihydrobenzofuran-5-carboxamide], the half-inhibitory concentration (IC50) is more than 1000 nM.

In the case of `Cc1cc(C)c(CNC(=O)c2cc3c(c(-c4ccc(N5CCNCC5)nc4)c2)OCC3)c(=O)[nH]1` [Example 38, N-((4,6-Dimethyl-2-oxo-1,2-dihydropyridin-3-yl)methyl)-7-(6-(piperazin-1-yl)pyridin-3-yl)-2,3-dihydrobenzofuran-5-carboxamide], the half-maximal inhibitory concentration (IC50) was more than 1000 nM.

Regarding `Cc1cc(C)c(CNC(=O)c2ccc3c(c2)CCC(C)(C)O3)c(=O)[nH]1` [Example 41, N-((4,6-Dimethyl-2-oxo-1,2-dihydropyridin-3-yl)methyl)-2,2-dimethylchroman-6-carboxamide], the IC50 is more than 1000 nM.

As for `Cc1cc(C)c(CNC(=O)c2cc(Br)c3c(c2)CCC(C)(C)O3)c(=O)[nH]1` [Example 42, 8-Bromo-N-((4,6-dimethyl-2-oxo-1,2-dihydropyridin-3-yl)methyl)-2,2-dimethylchroman-6-carboxamide], the IC50 is more than 1000 nM.

Regarding `COc1ccc(-c2cc(C(=O)NCc3c(C)cc(C)[nH]c3=O)cc3c2OC(C)(C)CC3)cn1` [Example 43, N-((4,6-Dimethyl-2-oxo-1,2-dihydropyridin-3-yl)methyl)-8-(6-methoxypyridin-3-yl)-2,2-dimethylchroman-6-carboxamide], the concentration for half-maximal inhibition (IC50) is more than 1000 nM.

On to `CC1=CCOc2c(Br)cc(C(=O)NCc3c(C)cc(C)[nH]c3=O)cc2C1` [Example 44, 9-Bromo-N-((4,6-dimethyl-2-oxo-1,2-dihydropyridin-3-yl)methyl)-4-methyl-2,5-dihydrobenzo[b]oxepine-7-carboxamide], for which the 50% inhibitory concentration (IC50) was more than 1000 nM.

As for `Cc1cc(C)c(CNC(=O)c2cc(Br)c3c(c2)CC(C)CCO3)c(=O)[nH]1` (stereo not drawn) [Example 45, 9-Bromo-N-((4,6-dimethyl-2-oxo-1,2-dihydropyridin-3-yl)methyl)-4-methyl-2,3,4,5-tetrahydrobenzo[b]oxepine-7-carboxamide], the IC50 was more than 1000 nM.

Regarding `COc1ccc(-c2cc(C(=O)NCc3c(C)cc(C)[nH]c3=O)cc3c2OCCC(C)C3)cn1` (stereo not drawn) [Example 46, N-((4,6-Dimethyl-2-oxo-1,2-dihydropyridin-3-yl)methyl)-9-(6-methoxypyridin-3-yl)-4-methyl-2,3,4,5-tetrahydrobenzo[b]oxepine-7-carboxamide], the IC50 is more than 1000 nM.

Consider `Cc1cc(C)c(CNC(=O)c2ccc3c(c2)C=CCC(C)O3)c(=O)[nH]1` (stereo not drawn) [Example 47, N-((4,6-Dimethyl-2-oxo-1,2-dihydropyridin-3-yl)methyl)-2-methyl-2,3-dihydrobenzo[b]oxepine-7-carboxamide], for which the half-maximal inhibitory concentration (IC50) was more than 1000 nM.

Regarding `Cc1cc(C)c(CNC(=O)c2ccc3c(c2)CCCC(C)O3)c(=O)[nH]1` (stereo not drawn) [Example 48, N-((4,6-Dimethyl-2-oxo-1,2-dihydropyridin-3-yl)methyl)-2-methyl-2,3,4,5-tetrahydrobenzo[b]oxepine-7-carboxamide], the IC50 was more than 1000 nM.
